Assay results: patent publication US20240207422A1, “NERVE TARGETING PEPTIDE CONJUGATES AND METHODS OF USE” (Alume Biosciences, Inc., priority 2022, published 2024)

How the values were obtained:
human nerve extract = experiment: Phage display selection on plates coated with human nerve extract (Plated Nerve2), NextGen sequence counts; format: binding; conditions: unique sequence count (relative enrichment); Plated Nerve2 only
Description: Several m13 phage libraries were constructed expressing randomized variants of a parent peptide (QVPWEEPYYVVKKS-SGGL; SEQ ID NO: 576). In particular, the first 14 amino acids of the parent peptide were randomized using degenerate oligonucleotide synthesis to obtain a diverse set of peptides with a mutation rate of about 50% per residue.
To accomplish this, synthesis was carried out by the XXK codon design approach, where X is any base and K is G or T. To bias synthesis towards the parent sequence, synthesis was carried out at each X position with a mixture of about 70%-85% of the parent nucleotide and 15-30% of the remaining 3 nucleotides. The resulting molecules were inserted into fADL-1e (Antibody Design Laboratories), which is a type 3 phage display vector having a cloning site on the N-terminal side of the full-length gene III protein. The fusion proteins are directed to the periplasm by the PelB leader peptide, which is inserted in the vector […].
Collectively, the phage display libraries used in the screens comprised about 600 million peptides, with sequencing analysis confirming a mutation rate of about 50% per residue.
Phage libraries were independently processed, as follows, with five biological samples: two independent samples of excised human nerve tissue, one sample of a human nerve extract, and two independent samples of human muscle tissue, as follows:
Human Nerve Extracts: Phage libraries were incubated for up to 24 hours at 4° C. in 96 well plates that had been coated with a human nerve extract. Plates were then washed with PBS and phage were eluted using 0.2M glycine pH 2.0. Phage supernatants where then neutralized with Tris pH 9.0 prior to plating on TG1 bacteria and LB agar plates. Colonies were counted to determine titer followed by DNA preparation of pools of phage and NextGen sequencing. After rounds of selection, phage were pooled and amplified for iterative selection. Phage that eluted by 0.2M glycine pH 2.0 (the nerve binders) at each round were sequenced. NextGen sequencing of pools after 2, 3 and 4 rounds of selection were used to isolate candidate sequences that were further analyzed using bioinformatics.
NextGen sequencing of pools after 2, 3 and 4 rounds of selection were used to isolate candidate sequences from each of the five samples. These five data sets were then analyzed as described in the next section.
Peptide and vector sequences were translated starting at the first start codon in the nucleotide sequence. […] Trimmed peptides with identical sequences were combined and quantified according to their frequency (count).
Following processing, an R script was written to merge the unique peptide sequences (with counts 6 or greater) from the 5 different data sets to analyze the overlap between nerve and muscle binding activity.
For the single Nerve2, Nerve3, and Plated Nerve2 (pn2) subsets, the number of counts for each group was set at a threshold giving rise to at least 100 peptides. […] As highlighted in yellow in FIG. 1B, the representative group also included 6 unique peptides overlapping between nerve2 and nerve3, 200 unique peptides overlapping between nerve2 and plated nerve2 (at least 60 counts), 4 unique peptides overlapping between nerve3 and plated nerve2. Finally, as highlighted in green in FIG. 1B, the representative group also included […] common to the nerve2, nerve3, and plated nerve2 sets.

[1] = system: excised human nerve tissue; experiment: Phage display selection on excised human nerve tissue (Nerve2, Nerve3), NextGen sequence counts; format: binding; conditions: unique sequence count (relative enrichment)
Outline: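 Randomized parent-peptide m13 phage libraries (about 50% mutation per residue) selected on washed excised human nerve tissue over multiple rounds, washing nerve pellet with PBS. NextGen sequencing of pools after rounds 2, 3 and 4; translated peptides counted by frequency, with counts 6 or greater retained.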

[2] = peptides overlapping between Nerve2 and Plated Nerve2
[3] = peptides overlapping between Nerve3 and Plated Nerve 2

Substance | Count (human nerve extract) | other results
518 (HLSMEAPYYGVKEY) [compound 518] | 41 | –
552 (HVTSDDSYYAVKNP) [compound 552] | 36 | –
512 (QVLEKEPSSNVHKS) [compound 512] | 44 | –
463 (QLPLYDPYYTVRTS) [compound 463] | 63 | –
514 (QHLGEEPSYSGEYA) [compound 514] | 43 | –
535 (QLLWGESYSIVKNY) [compound 535] | 38 | –
485 (YVPYEEQKYVVTKS) [compound 485] | 53 | –
540 (HVRFAEPYYAGKTS) [compound 540] | 37 | –
516 (QFPWDEPNYVVKNF) [compound 516] | 42 | –
487 (DFQSEETRNLAKMP) [compound 487] | 51 | –
497 (EIPWEGTYRLVKHS) [compound 497] | 48 | –
469 (QVPRPASSYIGKTS) [compound 469] | 58 | –
460 (HDASEGAYYVERNS) [compound 460] | 65 | –
457 (SYEWEDPYYDLKYS) [compound 457] | 73 | –
537 (QLRSEDTYYTMQSY) [compound 537] | 38 | –
533 (QFSRADSQYLVKNS) [compound 533] | 38 | –
484 (RFPADEEHYVGKLS) [compound 484] | 53 | –
455 (QFPLAEPYYHLTES) [compound 455] | 77 | –
534 (QIPLQDPYHVVEKS) [compound 534] | 38 | –
524 (QFPWHKQFYVGKSS) [compound 524] | 40 | –
501 (QLAGGDPYVLPKLS) [compound 501] | 47 | –
520 (HVSWEEPRYIVKDS) [compound 520] | 41 | –
492 (HVAYQEPFVYQKTS) [compound 492] | 50 | –
502 (DVASGEQSYIVVKY) [compound 502] | 46 | –
541 (LLTGAEPYYLGKRS) [compound 541] | 37 | –

Substance | Count (human nerve extract) | other results
476 (HVPVLEPYDLVKKS) [compound 476] | 54 | –
470 (QIPLEGPTYVTNPS) [compound 470] | 57 | –
451 (QGQWDKPYDAVQNS) [compound 451] | 88 | –
531 (LVSPTGPIYVMNKS) [compound 531] | 38 | –
503 (HVWLEDTISAEKKS) [compound 503] | 46 | –
474 (QLALEQQSYDAKMS) [compound 474] | 55 | –
496 (QLQWQKSNWVGKIT) [compound 496] | 49 | –
466 (QIPGGERSYVLENS) [compound 466] | 62 | –
553 (QDPFGDLYYVTKMS) [compound 553] | 36 | –
525 (DFQIVGPSYVGKNS) [compound 525] | 39 | –
504 (QVQWDGASSIVQKT) [compound 504] | 46 | –
456 (HFDWEEPYYDASKA) [compound 456] | 73 | –
486 (HSQGQTTEYVGKQS) [compound 486] | 52 | –
549 (GLPSKEPYYVVKPA) [compound 549] | 36 | –
493 (QISRGDTYYVMNKS) [compound 493] | 50 | –
555 (QHPWKEQYYMATKP) [compound 555] | 36 | –
453 (QIPWTQPQYDVTPP) [compound 453] | 79 | –
475 (ALPWEHPWCVSKNC) [compound 475] | 54 | –
494 (HIPGEEPSDGVRSY) [compound 494] | 49 | –
546 (DVALGESHYNVKKY) [compound 546] | 36 | –
477 (QIRSTEPYYVFKKT) [compound 477] | 54 | –
483 (QVLFAKSYYSVKDS) [compound 483] | 53 | –
454 (HVELESSYYFVNNS) [compound 454] | 78 | –
519 (HVLGEQPYSVVKTS) [compound 519] | 41 | –
522 (QTPAEKPYYVVKKY) [compound 522] | 41 | –

Substance | Count (human nerve extract) | other results
498 (HVPQKEPYYVVKTF) [compound 498] | 48 | –
465 (QFPWEEPYYVFTNS) [compound 465] | 62 | –
526 (HLPSEKPWYDLDGS) [compound 526] | 39 | –
545 (RVTWEGPYNSVKKS) [compound 545] | 37 | –
543 (QLRFDEHHSVVTHS) [compound 543] | 37 | –
544 (QYPWEQRYYFERKS) [compound 544] | 37 | –
527 (HVSWSTSKYVVNHS) [compound 527] | 39 | –
510 (ELTMEQPSYVGNVS) [compound 510] | 44 | –
481 (QNPWDEPSYVVKNV) [compound 481] | 53 | –
509 (QRPGDEPSYFVKNS) [compound 509] | 45 | –
507 (QFPRHDPNEVVHKS) [compound 507] | 45 | –
472 (EFRSEQPYYFVNKY) [compound 472] | 55 | –
458 (NVTGAEYYYRMNNY) [compound 458] | 67 | –
515 (SISSKDPYALVKYS) [compound 515] | 43 | –
452 (QIPGDAQYRLVKRS) [compound 452] | 80 | –
478 (QSPGTNPQNVLIKS) [compound 478] | 54 | –
539 (HLPCKKSFYACKKH) [compound 539] | 37 | –
532 (QFASEEPYHVMKKP) [compound 532] | 38 | –
473 (QIRWDETYYDIQKT) [compound 473] | 55 | –
528 (QISWEDPDYGVRKS) [compound 528] | 39 | –
554 (QFPYDEPYNVVKKS) [compound 554] | 36 | –
530 (LFTGQQSYYEVQES) [compound 530] | 38 | –
490 (QFQWETPSHVINDS) [compound 490] | 51 | –
517 (QLPFNEPYYSQQVS) [compound 517] | 42 | –
471 (AIPSGAPYYKVNKY) [compound 471] | 56 | –

Substance | Count (human nerve extract) | other results
550 (HVPWDDQYYVWRTN) [compound 550] | 36 | –
491 (QTPRQTLYYSVKAY) [compound 491] | 51 | –
556 (QLNSEEPYYHFKNY) [compound 556] | 36 | –
495 (HLSVAEPYYAVRNS) [compound 495] | 49 | –
461 (QFGWEEPYYVLHTV) [compound 461] | 65 | –
464 (ELPYEEPGTFVEKA) [compound 464] | 62 | –
542 (QLPGAEAQNVVKYS) [compound 542] | 37 | –
523 (HVPSQEWYYDLHKS) [compound 523] | 40 | –
468 (YDPSGEPYYRVNNH) [compound 468] | 59 | –
155 (QNPAEEQYIVWNNS) [compound 155] | – | Count [1, 2]: 82
358 (QDVWAEPYYAGKQP) [compound 358] | – | Count ([1]; Nerve3 only): 390
240 (QLPFIGPYHVAKKS) [compound 240] | – | Count [1, 2]: 60
429 (QVSSVGPNHVVKKI) [compound 429] | – | Count ([1]; Nerve3 only): 102
151 (QFAWEHRDYVLQRS) [compound 151] | – | Count [1, 2]: 85
424 (ESPWAPPYYVVKKS) [compound 424] | – | Count ([1]; Nerve3 only): 107
39 (QALYAEPAYVSKKF) [compound 39] | – | Count [1, 3]: 19
118 (HVPGQDSYNVVNKF) [compound 118] | – | Count [1, 2]: 107
38 (QVQCKEQYYGVTNC) [compound 38] | – | Count [1, 3]: 195
283 (VFSSDSQYLFVPNF) [compound 283] | – | Count ([1]; Nerve2 only): 12
295 (QFAGEVPYYFATDL) [compound 295] | – | Count ([1]; Nerve2 only): 11
436 (DVPWEQPYFVVRNS) [compound 436] | – | Count ([1]; Nerve3 only): 90
100 (QFPSGHRVYTGKMT) [compound 100] | – | Count [1, 2]: 122
273 (LFPLDETYYVAKVS) [compound 273] | – | Count ([1]; Nerve2 only): 12
185 (LFAWAEANNVMKNS) [compound 185] | – | Count [1, 2]: 74
249 (HFSWEERYRVVHKS) [compound 249] | – | Count ([1]; Nerve2 only): 15
